Patent publication US8129398B2 (priority 2008, dated 2012)

Each compound was assayed against T1, HIV-integrase (Human immunodeficiency virus type 1 group M subtype B, UniProt P12497) (assay: HIV-Integrase Inhibition Activity (SPA bead integration assay with P33 labeled target DNA)). Conditions: recombinant integrase, class symbols; read-out: in vitro activity.
T1 construct: Recombinant integrase (0.26 ng) was incubated with the beads
Assay type: biochemical
Description: HIV-Integrase Inhibition Activity. To evaluate in-vitro activity against HIV-integrase, 5 pmole of biotin labeled substrate DNA was bound to 100 μg of Streptavidin coated PVT SPA beads (Amersham Pharmacia Biotech). Recombinant integrase (0.26 ng) was incubated with the beads for 90 min at 37° C. Unbound enzyme was removed by washing the complex followed by addition of inhibitors and 0.1 fmol of P33 labeled target DNA. The reaction was stopped by adding EDTA to a final concentration of 10 mM. Samples were counted in TopCountNXT (Packard) and the CPM was used as a measure of integration. The reaction condition was as described in A. Engelman and R. Craigie, J. Virol. 69, 5908-5911 (1995). The sequences of substrate and target DNA were described in Nucleic Acid Research 22, 1121-1122 (1994). Activity equal to A refers to a compound having IC50=<10 nM while B and C denote compounds having […] and IC50>100 nM respectively.

Row | Structure (SMILES) | IC50 [nM]
1 | O=C(NC12CCC(CC1)Cn1c2nc(C(=O)NCc2ccc(F)cc2)c(O)c1=O)NS(=O)(=O)c1ccccc1 [Example 330, 7,10-Ethanopyrimido[1,2-a]azepine-2-carboxamide, N-[(4-fluorophenyl)methyl]-4,6,7,8,9,10-hexahydro-3-hydroxy-4-oxo-10-[[[(phenylsulfonyl)amino]carbonyl]amino]-] | < 10
2 | CN(C)C(=O)C(=O)NC12CCC(CC1)Cn1c2nc(C(=O)NCc2csc(-c3ccccc3)n2)c(O)c1=O [Example 359] | < 10
3 | CCN(CC)C(=O)C(=O)NC12CCC(CCn3c1nc(C(=O)NCc1ccc(F)cc1)c(O)c3=O)C2 (stereo not shown) [Example 201] | < 10
4 | CN/C(=N\C#N)NC12CCC(CC1)Cn1c2nc(C(=O)NCc2ccc(F)c(C)c2)c(O)c1=O [Example 335, 7,10-Ethanopyrimido[1,2-a]azepine-2-carboxamide, 10-[[(1Z)-(cyanoamino)(methylamino)methylene]amino]-N-[(4-fluoro-3-methylphenyl)methyl]-4,6,7,8,9,10-hexahydro-3-hydroxy-4-oxo-] | < 10
5 | CN(C)C(=O)C(=O)NC12CCC(CC1)Cn1c2nc(C(=O)NCc2ccc(F)cc2-c2ccccc2)c(O)c1=O [Example 307, Ethanediamide, N′-[2-[[[(5-fluoro/[1,1′-biphenyl]-2-yl)methyl]amino]carbonyl]-6,7,8,9-tetrahydro-3-hydroxy-4-oxo-7,10-ethanopyrimido[1,2-a]azepin-10(4H)-yl]-N,N-dimethyl-] | < 10
6 | CN(C)C(=O)C(=O)N(C)C12CCC(CCn3c1nc(C(=O)NCc1ccc(F)cc1)c(O)c3=O)C2 (stereo not shown) [Example 211, Ethanediamide, N-[2-[[[(4-fluorophenyl)methyl]amino]carbonyl]-7,8,9,10-tetrahydro-3-hydroxy-4-oxo-8,11-methano-4H-pyrimido[1,2-a]azocin-11(6H)-yl]-N,N′,N′-trimethyl-] | < 10
7 | O=C(NC12CCC(CC1)Cn1c2nc(C(=O)NCc2ccc(F)cc2)c(O)c1=O)OCCO [Example 260, Carbamic acid, [2-[[[(4-fluorophenyl)methyl]amino]carbonyl]-6,7,8,9-tetrahydro-3-hydroxy-4-oxo-7,10-ethanopyrimido[1,2-a]azepin-10(4H)-yl]-, 2-hydroxyethyl ester] | < 10
8 | COC1CN(C(=O)C(=O)NC23CCC(CC2)Cn2c3nc(C(=O)NCc3ccc(F)cc3)c(O)c2=O)C1 [Example 66, N-(4-Fluorobenzyl)-3-hydroxy-10-(((3-methoxy-1-azetidinyl) (oxo)acetyl)amino)-4-oxo-4,6,7,8,9,10-hexahydro-7,10-ethanopyrimido[1,2-a]azepine-2-carboxamide] | < 10
9 | CN1CCN(C(=O)C(=O)NC23CCC(CC2)Cn2c3nc(C(=O)NCc3ccc(F)cc3)c(O)c2=O)CC1 [Example 71, N-(4-Fluorobenzyl)-3-hydroxy-10-(((4-methyl-1-piperazinyl)(oxo)acetyl)amino)-4-oxo-4,6,7,8,9,10-hexahydro-7,10-ethanopyrimido[1,2-a]azepine-2-carboxamide] | < 10
10 | COCCN(C)C(=O)C(=O)NC12CCC(CCn3c1nc(C(=O)NCc1ccc(F)cc1)c(O)c3=O)C2 (stereo not shown) [Example 205, Ethanediamide, N′-[2-[[[(4-fluorophenyl)methyl]amino]carbonyl]-7,8,9,10-tetrahydro-3-hydroxy-4-oxo-8,11-methano-4H-pyrimido[1,2-a]azocin-11(6H)-yl]-N-(2-methoxyethyl)-N-methyl-] | < 10
11 | Cc1cc(F)ccc1CNC(=O)c1nc2n(c(=O)c1O)CC1CCC2(NC(=O)C(=O)N(C)C)CC1 [Example 120, N′-(2-((4-Fluoro-2-methylbenzyl)carbamoyl)-3-hydroxy-4-oxo-6,7,8,9-tetrahydro-7,10-ethanopyrimido[1,2-a]azepin-10(4H)-yl)-N,N-dimethylethanediamide] | < 10
12 | COC(=O)c1cn(C(C)(C)C(=O)NC23CCC(CC2)Cn2c3nc(C(=O)NCc3ccc(F)c(C)c3)c(O)c2=O)nn1 [Example 284, 1H-1,2,3-Triazole-4-carboxylic acid, 1-[2-[[2-[[[(4-fluoro-3-methylphenyl)methyl]amino]carbonyl]-6,7,8,9-tetrahydro-3-hydroxy-4-oxo-7,10-ethanopyrimido[1,2-a]azepin-10(4H)-yl]amino]-1,1-dimethyl-2-oxoethyl]-, methyl ester] | < 10
13 | CNC(=O)c1cn(C(C)(C)C(=O)NC23CCC(CC2)Cn2c3nc(C(=O)NCc3ccc(F)c(C)c3)c(O)c2=O)nn1 [Example 286, 7,10-Ethanopyrimido[1,2-a]azepine-2-carboxamide, N-[(4-fluoro-3-methylphenyl)methyl]-4,6,7,8,9,10-hexahydro-3-hydroxy-10-[[2-methyl-2-[4-[(methylamino)carbonyl]-1H-1,2,3-triazol-1-yl]-1-oxopropyl]amino]-4-oxo-] | < 10
14 | COC[C@@H]1CCCN1C(=O)C(=O)NC12CCC(CC1)Cn1c2nc(C(=O)NCc2ccc(F)cc2)c(O)c1=O [Example 89, N-(4-Fluorobenzyl)-3-hydroxy-10-((((2S)-2-(methoxymethyl)-1-pyrrolidinyl)(oxo)acetyl)amino)-4-oxo-4,6,7,8,9,10-hexahydro-7,10-ethanopyrimido[1,2-a]azepine-2-carboxamide] | < 10
15 | O=C(NC12CCC(CC1)Cn1c2nc(C(=O)NCc2ccc(F)cc2)c(O)c1=O)C(=O)N1CCN(S(=O)(=O)c2ccc(S(=O)(=O)N3CCOCC3)cc2)CC1 [Example 149, N-(4-Fluorobenzyl)-3-hydroxy-10-(((4-((4-(4-morpholinylsulfonyl)phenyl)sulfonyl)-1-piperazinyl)(oxo)acetyl)amino)-4-oxo-4,6,7,8,9,10-hexahydro-7,10-ethanopyrimido[1,2-a]azepine-2-carboxamide] | < 10
16 | O=C(NC12CCC(CC1)Cn1c2nc(C(=O)NCc2ccc(F)cc2)c(O)c1=O)C(=O)N1CCNCC1 [Example 62, N-(4-Fluorobenzyl)-3-hydroxy-4-oxo-10-((oxo(1-piperazinyl)acetyl)amino)-4,6,7,8,9,10-hexahydro-7,10-ethanopyrimido[1,2-a]azepine-2-carboxamide] | < 10
17 | NC12CCC(Cn3c1nc(C(=O)NCc1ccc(F)cc1)c(O)c3=O)C2 (stereo not shown) [Example 190, 7,10-Methanopyrimido[1,2-a]azepine-2-carboxamide, 10-amino-N-[(4-fluorophenyl)methyl]-4,6,7,8,9,10-hexahydro-3-hydroxy-4-oxo-] | 10 to 100
18 | Cc1ncn(C)c1C(=O)NC12CCC(CC1)Cn1c2nc(C(=O)NCc2ccc(F)cc2)c(O)c1=O [Example 243, 7,10-Ethanopyrimido[1,2-a]azepine-2-carboxamide, 10-[[(1,4-dimethyl-1H-imidazol-5-yl)carbonyl]amino]-N-[(4-fluorophenyl)methyl]-4,6,7,8,9,10-hexahydro-3-hydroxy-4-oxo-] | 10 to 100
19 | CN(C)C(=O)C(=O)NC12CCC(CC1)n1c2nc(C(=O)NCc2ccc(F)cc2)c(O)c1=O [Example 16, Ethanediamide, N′-[2-[[[(4-fluorophenyl)methyl]amino]carbonyl]-7,8-dihydro-3-hydroxy-4-oxo-6,9-ethano-4H-pyrido[1,2-a]pyrimidin-9(6H)-yl]-N,N-dimethyl-] | < 10
20 | CN(C)C(=O)C(=O)NC12CCC(CC1)Cn1c2nc(C(=O)NCc2ccc(F)cc2Cl)c(O)c1=O [Example 118, N′-(2-((2-Chloro-4-fluorobenzyl)carbamoyl)-3-hydroxy-4-oxo-6,7,8,9-tetrahydro-7,10-ethanopyrimido[1,2-a]azepin-10(4H)-yl)-N,N-dimethylethanediamide] | < 10
21 | COC1CCN(C(=O)C(=O)NC23CCC(CC2)Cn2c3nc(C(=O)NCc3ccc(F)cc3)c(O)c2=O)C1 (stereo not shown) [Example 90, N-(4-Fluorobenzyl)-3-hydroxy-10-(((3-methoxy-1-pyrrolidinyl)(oxo)acetyl)amino)-4-oxo-4,6,7,8,9,10-hexahydro-7,10-ethanopyrimido[1,2-a]azepine-2-carboxamide] | < 10
22 | CC(=O)N1CC(F)(F)C[C@H]1C(=O)NC12CCC(CC1)Cn1c2nc(C(=O)NCc2ccc(F)c(C)c2)c(O)c1=O [Example 289, 7,10-Ethanopyrimido[1,2-a]azepine-2-carboxamide, 10-[[[(2S)-1-acetyl-4,4-difluoro-2-pyrrolidinyl]carbonyl]amino]-N-[(4-fluoro-3-methylphenyl)methyl]-4,6,7,8,9,10-hexahydro-3-hydroxy-4-oxo-] | < 10
23 | Cc1nn(C)cc1CN(C)C(=O)C(=O)NC12CCC(CC1)Cn1c2nc(C(=O)NCc2ccc(F)cc2)c(O)c1=O [Example 96, N-((1,3-Dimethyl-1H-pyrazol-4-yl)methyl)-N′-(2-((4-fluorobenzyl)carbamoyl)-3-hydroxy-4-oxo-6,7,8,9-tetrahydro-7,10-ethanopyrimido[1,2-a]azepin-10(4H)-yl)-N-methylethanediamide] | < 10
24 | Cc1cc(CNC(=O)c2nc3n(c(=O)c2O)CC2CCC3(NC(=O)Nc3cccnc3)CC2)ccc1F [Example 326, 7,10-Ethanopyrimido[1,2-a]azepine-2-carboxamide, N-[(4-fluoro-3-methylphenyl)methyl]-4,6,7,8,9,10-hexahydro-3-hydroxy-4-oxo-10-[[(3-pyridinylamino)carbonyl]amino]-] | < 10
25 | Cc1cc(CNC(=O)c2nc3n(c(=O)c2O)CC2CCC3(NC(=O)C(C)n3cncn3)CC2)ccc1F (stereo not shown) [Example 291, 7,10-Ethanopyrimido[1,2-a]azepine-2-carboxamide, N-[(4-fluoro-3-methylphenyl)methyl]-4,6,7,8,9,10-hexahydro-3-hydroxy-4-oxo-10-[[1-oxo-2-(1H-1,2,4-triazol-1-yl)propyl]amino]-] | < 10
